Results taken from patent publication US20100152434A1, “Protein Kinase-binding Nucleosides and Associated Methods” (priority 2007, published 2010).

How the values were obtained:
FLT3 [1] = biological target: T1, FLT3 (Homo sapiens, UniProt P36888); test: Ambit kinase phage display ATP-binding-site ligand binding assay; conditions: read-out: % Inhibition of binding to ATP-binding-site ligand
Source text: (§4) This assay is based on ligand-affinity/protein kinase phage display and was employed essentially as described by Fabian et. al [Nature Biotech. […] In this assay, protein kinases are cloned into T7 bacteriophage which express the kinase fusion proteins on the phage capsid. T7 kinase-tagged phage are then screened for binding to ATP-binding-site ligands that have been immobilized on a solid support. Phage are screened for binding to the anchored ligands both in the presence of test compound and in its absence (control). Elution of the bound phage by free ligand (ATP-binding site ligand that is not immobilized on a solid support) followed by determination of the phage titre provides a reliable measure of the ability of test compounds to block binding of target kinases to resin-bound ATP-binding-site ligands.
(§5) T7 kinase-tagged phage strains were grown in parallel in microtiter plates in a proprietary bacterial host derived from E. Coli strain BL21. E. Coli were grown to a log phase, infected with T7 kinase-tagged phage, and incubated while shaking at 32° C. until bacterial lysis (approx. 90 min). Lysates were centrifuged (6,000 g) and filtered (0.2 μm). […] The phage titre of the eluates was measured by quantitative PCR or by plaque assays. […]

ABL1(F317) = test: as above; conditions: 10 μM
Source text: (§6) In this assay, protein kinases are cloned into T7 bacteriophage which express the kinase fusion proteins on the phage capsid. T7 kinase-tagged phage are then screened for binding to ATP-binding-site ligands that have been immobilized on a solid support. Phage are screened for binding to the anchored ligands both in the presence of test compound and in its absence (control). Elution of the bound phage by free ligand (ATP-binding site ligand that is not immobilized on a solid support) followed by determination of the phage titre provides a reliable measure of the ability of test compounds to block binding of target kinases to resin-bound ATP-binding-site ligands.
(§7) T7 kinase-tagged phage strains were grown in parallel in microtiter plates in a proprietary bacterial host derived from E. Coli strain BL21. E. Coli were grown to a log phase, infected with T7 kinase-tagged phage, and incubated while shaking at 32° C. until bacterial lysis (approx. 90 min). Lysates were centrifuged (6,000 g) and filtered (0.2 μm). Small molecule ATP-binding-site-specific ligands were anchored to solid supports via a two step process beginning with biotin conjugation followed by treatment of the biotin/small molecule conjugate with streptavidin-coated magnetic beads. […] The phage titre of the eluates was measured by quantitative PCR or by plaque assays. […]

CSNK1G2 = CSNK1G2 (Homo sapiens, UniProt P78368); test: as above; conditions: read-out: % Inhibition of binding to ATP-binding-site ligand
Source text: as §6, §7

ALK6 = ALK6 (Homo sapiens, UniProt O00238); test: as above; conditions: read-out: % Inhibition of binding to ATP-binding-site ligand
Source text: as §4, §5

MARK3 [2] = biological target: T2, MARK3 (Homo sapiens, UniProt P27448); test: as above; conditions: read-out: % Inhibition of binding to ATP-binding-site ligand
T2 sequence (P27448 whole entry, species assumed): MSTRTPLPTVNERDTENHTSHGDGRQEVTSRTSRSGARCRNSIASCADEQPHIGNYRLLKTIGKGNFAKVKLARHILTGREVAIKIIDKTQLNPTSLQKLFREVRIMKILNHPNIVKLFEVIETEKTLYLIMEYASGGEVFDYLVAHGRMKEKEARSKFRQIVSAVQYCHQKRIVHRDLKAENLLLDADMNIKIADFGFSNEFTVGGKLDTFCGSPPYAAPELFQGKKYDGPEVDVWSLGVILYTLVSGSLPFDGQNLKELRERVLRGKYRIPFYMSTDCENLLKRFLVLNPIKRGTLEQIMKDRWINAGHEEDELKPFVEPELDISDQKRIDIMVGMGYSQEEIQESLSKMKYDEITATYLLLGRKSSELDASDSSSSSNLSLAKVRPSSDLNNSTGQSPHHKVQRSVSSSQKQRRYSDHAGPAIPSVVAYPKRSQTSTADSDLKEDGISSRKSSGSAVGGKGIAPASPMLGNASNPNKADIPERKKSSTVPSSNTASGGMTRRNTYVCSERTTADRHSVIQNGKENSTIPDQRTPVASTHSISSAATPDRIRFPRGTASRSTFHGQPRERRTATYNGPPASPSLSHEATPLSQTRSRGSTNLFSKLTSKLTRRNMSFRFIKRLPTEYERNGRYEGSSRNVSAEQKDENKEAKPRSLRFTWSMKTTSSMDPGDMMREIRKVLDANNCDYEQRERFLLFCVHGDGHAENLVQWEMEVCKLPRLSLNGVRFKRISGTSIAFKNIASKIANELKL
Source text: as §6, §7

ABL1 = ABL1 (Homo sapiens, UniProt P00519); test: SignalChem radioisotope protein kinase assay; assay type: biochemical; conditions: 5 μl of 100 μM stock solution in 25 μl
Source text: (§1) The various protein kinase targets to be employed in the kinase profiling assay were cloned, expressed and purified in-house at SignalChem (Richmond, BC, Canada) using proprietary methods. Quality control testing is routinely performed on each of the SignalChem targets to ensure compliance to acceptable standards. Protein substrates employed in the target profiling process were synthesized internally. ^33P-ATP was purchased from PerkinElmer. All other materials were of standard grade. Compound 10 (FIG. 4) was supplied to SignalChem in a powder form. It was reconstituted in DMSO to form a stock solution which was then diluted with 10% DMSO to form a working stock solution (100 μM) that was then profiled against the various protein kinase targets. The assay conditions for the various protein kinase targets were optimized to yield acceptable enzymatic activity. In addition, the assays were optimized to give high signal-to-noise ratio.
(§2) SignalChem uses a radioisotope assay format for profiling evaluation of protein kinase targets. Protein kinase assays were performed in triplicate at ambient temperature for 20-40 min (depending on the target) in a final volume of 25 μl according to the following assay reaction recipe: • Component 1: 5 μl of diluted active protein kinase target (˜10-40 nM final protein concentration in the assay) • Component 2: 5 μl of stock solution of substrate (1-5 μg of peptide or protein substrate) • Component 3: 5 μl of kinase assay buffer or protein kinase activator in kinase assay buffer • Component 4: 5 μl of Compound 10 (100 μM stock solution) or 10% DMSO • Component 5: 5 μl of 33P-ATP (25 μM stock solution, 0.8 μCi)
(§3) The assay was initiated by the addition of ^33P-ATP and the reaction mixture incubated at ambient temperature for 20-40 minutes, depending on the protein kinase target. After the incubation period, the assay was terminated by spotting 10 μl of the reaction mixture onto a Millipore Multiscreen plate. The Millipore Multiscreen plate was washed 3 times for approximately 15 minutes each in a 1% phosphoric acid solution. The radioactivity on the P81 plate was counted in the presence of scintillation fluid in a Trilux scintillation counter. Blank control, which included all the assay components except the addition of the appropriate substrate (replaced with equal volume of assay dilution buffer), was set up for each protein kinase target. The corrected activity for each protein kinase target was determined by removing the blank control value.

FLT3 [3] = biological target: T1, FLT3; test: SignalChem radioisotope protein kinase assay; assay type: biochemical; conditions: 5 μl of 100 μM stock solution in 25 μl
Source text: as §1, §2, §3

P38γ = P38γ (Homo sapiens, UniProt P53778); test: SignalChem radioisotope protein kinase assay; assay type: biochemical; conditions: 5 μl of 100 μM stock solution in 25 μl
Source text: as §1, §2, §3

PDK1 = PDK1 (Homo sapiens, UniProt O15530); test: SignalChem radioisotope protein kinase assay; assay type: biochemical; conditions: 5 μl of 100 μM stock solution in 25 μl
Source text: as §1, §2, §3

p70S6K = p70S6K (Homo sapiens, UniProt P23443); test: SignalChem radioisotope protein kinase assay; assay type: biochemical; conditions: 5 μl of 100 μM stock solution in 25 μl
Source text: as §1, §2, §3

MEK1 = MEK1 (Homo sapiens, UniProt Q02750); test: SignalChem radioisotope protein kinase assay; assay type: biochemical; conditions: 5 μl of 100 μM stock solution in 25 μl
Source text: as §1, §2, §3

RSK2 = biological target: T3, RSK2 (Homo sapiens, UniProt P51812); test: SignalChem radioisotope protein kinase assay; assay type: biochemical; conditions: 5 μl of 100 μM stock solution in 25 μl
T3 construct: purchased SignalChem
T3 sequence (P51812 whole entry, species assumed): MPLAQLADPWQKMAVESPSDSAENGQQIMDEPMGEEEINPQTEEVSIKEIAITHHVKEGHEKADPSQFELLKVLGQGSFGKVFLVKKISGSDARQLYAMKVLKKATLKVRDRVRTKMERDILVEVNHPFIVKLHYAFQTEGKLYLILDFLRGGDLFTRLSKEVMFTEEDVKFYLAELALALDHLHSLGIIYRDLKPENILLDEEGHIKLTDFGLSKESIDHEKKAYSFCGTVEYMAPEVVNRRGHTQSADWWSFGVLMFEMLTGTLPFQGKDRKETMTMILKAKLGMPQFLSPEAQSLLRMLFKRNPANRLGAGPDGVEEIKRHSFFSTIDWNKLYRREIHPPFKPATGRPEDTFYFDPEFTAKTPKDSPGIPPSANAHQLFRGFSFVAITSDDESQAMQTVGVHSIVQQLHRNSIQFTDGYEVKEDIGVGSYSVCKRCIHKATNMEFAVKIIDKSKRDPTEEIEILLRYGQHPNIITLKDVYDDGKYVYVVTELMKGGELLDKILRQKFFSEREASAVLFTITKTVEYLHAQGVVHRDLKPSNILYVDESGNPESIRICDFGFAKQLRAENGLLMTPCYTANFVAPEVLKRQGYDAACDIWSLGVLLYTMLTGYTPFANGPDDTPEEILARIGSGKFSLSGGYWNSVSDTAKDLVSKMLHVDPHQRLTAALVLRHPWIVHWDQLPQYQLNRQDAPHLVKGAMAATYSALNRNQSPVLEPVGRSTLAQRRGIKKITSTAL
Source text: as §1, §2, §3

MARK3 [4] = biological target: T2, MARK3; test: SignalChem radioisotope protein kinase assay; assay type: biochemical; conditions: 5 μl of 100 μM stock solution in 25 μl
Source text: as §1, §2, §3

FAK = FAK (Homo sapiens, UniProt Q05397); test: SignalChem radioisotope protein kinase assay; assay type: biochemical; conditions: 5 μl of 100 μM stock solution in 25 μl
Source text: as §1, §2, §3

PAK7 = PAK7 (Homo sapiens, UniProt Q9P286); test: SignalChem radioisotope protein kinase assay; assay type: biochemical; conditions: 5 μl of 100 μM stock solution in 25 μl
Sequence of PAK7 (Q9P286 whole entry, species assumed): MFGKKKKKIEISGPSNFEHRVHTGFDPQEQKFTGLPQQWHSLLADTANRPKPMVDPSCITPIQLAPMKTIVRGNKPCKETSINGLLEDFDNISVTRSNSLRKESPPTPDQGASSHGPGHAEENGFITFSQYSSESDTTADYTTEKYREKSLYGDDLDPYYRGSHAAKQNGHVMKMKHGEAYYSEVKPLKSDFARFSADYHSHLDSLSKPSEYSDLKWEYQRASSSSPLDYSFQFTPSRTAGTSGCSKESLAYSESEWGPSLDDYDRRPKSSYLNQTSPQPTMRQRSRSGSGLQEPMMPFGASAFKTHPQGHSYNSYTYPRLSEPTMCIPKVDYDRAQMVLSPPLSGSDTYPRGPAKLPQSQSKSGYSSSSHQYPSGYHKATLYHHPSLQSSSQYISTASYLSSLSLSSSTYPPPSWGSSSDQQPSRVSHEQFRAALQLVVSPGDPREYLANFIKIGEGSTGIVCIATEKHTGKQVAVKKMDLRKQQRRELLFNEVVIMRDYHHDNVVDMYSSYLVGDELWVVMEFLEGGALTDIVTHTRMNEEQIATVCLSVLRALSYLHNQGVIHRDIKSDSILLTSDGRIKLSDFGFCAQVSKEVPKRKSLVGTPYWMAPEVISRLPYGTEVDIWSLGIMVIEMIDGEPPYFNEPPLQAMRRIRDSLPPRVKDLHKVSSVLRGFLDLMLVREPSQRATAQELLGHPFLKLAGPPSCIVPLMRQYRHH
Source text: as §1, §2, §3

p38α = p38α (Homo sapiens, UniProt Q16539); test: SignalChem radioisotope protein kinase assay; assay type: biochemical; conditions: 5 μl of 100 μM stock solution in 25 μl
Source text: as §1, §2, §3

LYN B = LYN B (Homo sapiens, UniProt P07948); test: SignalChem radioisotope protein kinase assay; assay type: biochemical; conditions: 5 μl of 100 μM stock solution in 25 μl
Sequence of LYN B (P07948 1-491 isoform P07948-2, species assumed): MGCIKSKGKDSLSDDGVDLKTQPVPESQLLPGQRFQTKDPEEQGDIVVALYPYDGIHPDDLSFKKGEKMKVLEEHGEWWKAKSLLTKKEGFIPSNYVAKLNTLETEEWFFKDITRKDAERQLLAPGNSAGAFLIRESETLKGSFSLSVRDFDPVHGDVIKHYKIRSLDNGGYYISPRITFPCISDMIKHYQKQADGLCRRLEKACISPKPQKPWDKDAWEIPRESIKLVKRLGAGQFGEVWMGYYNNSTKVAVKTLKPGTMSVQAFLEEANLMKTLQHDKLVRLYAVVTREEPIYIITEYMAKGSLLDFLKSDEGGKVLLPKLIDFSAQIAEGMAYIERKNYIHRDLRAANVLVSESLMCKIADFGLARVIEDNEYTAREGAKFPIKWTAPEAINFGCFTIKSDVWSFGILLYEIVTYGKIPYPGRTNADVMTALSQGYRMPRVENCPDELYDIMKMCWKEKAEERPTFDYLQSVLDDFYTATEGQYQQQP
Source text: as §1, §2, §3

RSK3 = biological target: T4, RSK3 (Homo sapiens, UniProt Q15349); test: SignalChem radioisotope protein kinase assay; assay type: biochemical; conditions: 5 μl of 100 μM stock solution in 25 μl
T4 construct: purchased SignalChem
Source text: as §1, §2, §3

PKCα = biological target: T5, PKCα (Homo sapiens, UniProt P17252); test: SignalChem radioisotope protein kinase assay; assay type: biochemical; conditions: 5 μl of 100 μM stock solution in 25 μl
T5 construct: purchased SignalChem
Source text: as §1, §2, §3

FRK = FRK (Homo sapiens, UniProt P42685); test: SignalChem radioisotope protein kinase assay; assay type: biochemical; conditions: 5 μl of 100 μM stock solution in 25 μl
Sequence of FRK (P42685 whole entry, species assumed): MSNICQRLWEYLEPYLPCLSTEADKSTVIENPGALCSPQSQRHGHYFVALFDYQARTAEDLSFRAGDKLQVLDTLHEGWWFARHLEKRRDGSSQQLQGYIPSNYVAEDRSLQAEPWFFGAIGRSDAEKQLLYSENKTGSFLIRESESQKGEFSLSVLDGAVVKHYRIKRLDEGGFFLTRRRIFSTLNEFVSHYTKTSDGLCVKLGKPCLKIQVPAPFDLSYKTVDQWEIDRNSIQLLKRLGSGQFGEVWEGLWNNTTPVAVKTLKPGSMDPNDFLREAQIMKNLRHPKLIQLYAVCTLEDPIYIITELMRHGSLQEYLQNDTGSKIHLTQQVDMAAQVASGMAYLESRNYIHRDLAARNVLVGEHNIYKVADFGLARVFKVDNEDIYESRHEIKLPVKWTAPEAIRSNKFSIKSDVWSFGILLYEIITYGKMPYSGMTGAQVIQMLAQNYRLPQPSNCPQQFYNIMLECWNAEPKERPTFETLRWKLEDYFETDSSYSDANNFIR
Source text: as §1, §2, §3

ERK2 = ERK2 (Homo sapiens, UniProt P28482); test: Ambit kinase phage display ATP-binding-site ligand binding assay; conditions: read-out: percent inhibition of binding
Source text: as §6, §7

MEK6 = MEK6 (Homo sapiens, UniProt P52564); test: as above; conditions: read-out: percent inhibition of binding
Source text: as §4, §5

MST1 = MST1 (Homo sapiens, UniProt Q13043); test: as above; conditions: read-out: percent inhibition of binding
Source text: as §6, §7

BTK = BTK (Homo sapiens, UniProt Q06187); test: SignalChem radioisotope protein kinase assay; assay type: biochemical; design: host or cells: T7 phage in an E. coli BL21-derived host; conditions: 5 μl of 100 μM stock solution in 25 μl
Sequence of BTK (Q06187 whole entry, species assumed): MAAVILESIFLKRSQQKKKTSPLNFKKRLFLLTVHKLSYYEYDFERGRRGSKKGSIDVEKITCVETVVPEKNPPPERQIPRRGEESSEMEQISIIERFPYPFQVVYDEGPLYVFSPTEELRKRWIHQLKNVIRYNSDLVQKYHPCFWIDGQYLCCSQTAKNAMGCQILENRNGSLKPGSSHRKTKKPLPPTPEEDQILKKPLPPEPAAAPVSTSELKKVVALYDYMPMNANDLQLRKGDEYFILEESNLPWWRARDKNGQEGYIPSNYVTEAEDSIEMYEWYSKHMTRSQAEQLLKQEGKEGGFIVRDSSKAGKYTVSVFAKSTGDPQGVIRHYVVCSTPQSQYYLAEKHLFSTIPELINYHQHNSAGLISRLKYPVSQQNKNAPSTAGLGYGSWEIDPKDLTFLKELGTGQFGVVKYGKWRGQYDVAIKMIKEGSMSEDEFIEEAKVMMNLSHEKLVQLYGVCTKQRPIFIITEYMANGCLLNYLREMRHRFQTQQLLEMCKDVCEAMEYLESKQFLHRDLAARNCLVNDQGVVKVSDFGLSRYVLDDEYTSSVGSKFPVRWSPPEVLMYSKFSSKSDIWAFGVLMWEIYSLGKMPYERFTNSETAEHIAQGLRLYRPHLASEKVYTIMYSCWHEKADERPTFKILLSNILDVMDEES
Source text: as §1, with “ratio. […]” for “ratio.”
The assay was initiated by the addition of ^33P-ATP and the reaction mixture incubated at ambient temperature for 20-40 minutes, depending on the protein kinase target. […] The radioactivity on the P81 plate was counted in the presence of scintillation fluid in a Trilux scintillation counter. […] The corrected activity for each protein kinase target was determined by removing the blank control value.

CDK3 = CDK3 (Homo sapiens, UniProt Q00526); test: Ambit kinase phage display ATP-binding-site ligand binding assay; conditions: read-out: percent inhibition of binding
Source text: as §4, §5

PIK3CG = PIK3CG (Homo sapiens, UniProt P48736); test: as above; conditions: read-out: percent inhibition of binding
Source text: as §4, §5

T1 sequence (P36888 27-993, species assumed): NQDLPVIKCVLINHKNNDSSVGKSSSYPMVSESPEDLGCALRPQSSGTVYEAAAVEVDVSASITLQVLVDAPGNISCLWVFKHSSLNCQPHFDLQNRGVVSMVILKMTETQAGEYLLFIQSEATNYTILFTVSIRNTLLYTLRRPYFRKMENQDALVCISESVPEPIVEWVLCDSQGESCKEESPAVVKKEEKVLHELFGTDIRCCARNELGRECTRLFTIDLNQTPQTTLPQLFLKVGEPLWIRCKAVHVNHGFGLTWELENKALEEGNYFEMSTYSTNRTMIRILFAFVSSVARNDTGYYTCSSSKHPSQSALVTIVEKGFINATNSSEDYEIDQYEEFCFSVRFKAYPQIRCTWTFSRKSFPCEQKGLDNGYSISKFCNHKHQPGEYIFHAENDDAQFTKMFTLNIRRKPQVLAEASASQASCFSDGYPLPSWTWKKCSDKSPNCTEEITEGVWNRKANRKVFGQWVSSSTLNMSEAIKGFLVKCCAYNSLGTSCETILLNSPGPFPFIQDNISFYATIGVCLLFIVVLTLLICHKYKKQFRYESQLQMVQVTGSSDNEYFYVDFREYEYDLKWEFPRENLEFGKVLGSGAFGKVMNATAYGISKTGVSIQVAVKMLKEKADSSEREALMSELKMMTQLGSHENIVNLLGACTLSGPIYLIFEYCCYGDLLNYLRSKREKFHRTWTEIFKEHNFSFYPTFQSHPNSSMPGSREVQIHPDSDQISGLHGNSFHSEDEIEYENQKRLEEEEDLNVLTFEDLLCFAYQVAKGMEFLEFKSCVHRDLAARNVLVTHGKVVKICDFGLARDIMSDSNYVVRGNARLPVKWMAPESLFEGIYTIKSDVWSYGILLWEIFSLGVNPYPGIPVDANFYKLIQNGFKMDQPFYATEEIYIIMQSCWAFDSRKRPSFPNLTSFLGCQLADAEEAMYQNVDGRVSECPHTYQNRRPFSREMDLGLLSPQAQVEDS

Q: Which results are given for `CCOC(=O)C[C@@H]1C(O[Si](C)(C)C(C)(C)C)[C@H](n2cnc3c(NC(=O)Nc4ccccc4)ncnc32)O[C@@H]1CNC(=O)NC` (some centres unmarked) [Compound 10]?
A: inhibition at 10 µM (FLT3 [1]): 31%; percent inhibition of binding (ABL1(F317)): 20-29%; inhibition at 10 µM (CSNK1G2): 38%; inhibition at 10 µM (ALK6): 47%; inhibition at 10 µM (MARK3 [2]): 34%; % Activity Change (ABL1): 0%; % Activity Change (FLT3 [3]): 11%; % Activity Change (P38γ): 14%; % Activity Change (PDK1): 8%; % Activity Change (p70S6K): −1%; % Activity Change (MEK1): 8%; % Activity Change (RSK2): −4%; % Activity Change (MARK3 [4]): −1%; % Activity Change (FAK): −3%; % Activity Change (PAK7): 21%; % Activity Change (p38α): 9%; % Activity Change (LYN B): 12%; % Activity Change (RSK3): 10%; % Activity Change (PKCα): 36%; % Activity Change (FRK): 24%; inhibition at 10 µM (ERK2): 20 to 29%; inhibition at 10 µM (MEK6): 20 to 29%; inhibition at 10 µM (MST1): 20 to 29%; % Activity Change (BTK): 10%; inhibition at 10 µM (CDK3): 20 to 29%; inhibition at 10 µM (PIK3CG): 20 to 29%
